US7994140B2, “Classes of compounds that interact with GPCRs” (Alchemia Limited, priority 2002, dated 2011)

biological target: T1, SST5 (Homo sapiens, UniProt P35346); assay: GPCR radioligand binding (RLB) assay, somatostatin SST5, [125I]SST-14; details: 10 micromolar compound; recombinant human receptor membranes (HEK 293)
T1 construct: purchased Perkin Elmer BioSignal; host or cells: HEK 293
Experimental: Recombinant human receptors expressed in HEK 293 cells were used for all experiments. Receptor membrane preparations were purchased from Perkin Elmer BioSignal. The labelled ligand used in somatostatin GPCR RLB assays was [^125I]SST-14 and in melanocortin assays was [^125I]NDP-αMSH. All assays were done in a 96-well plate format using either glass fiber filter mats or filter plates. All reagents purchased were of the highest quality.
Specific assay buffer, incubation and washing conditions were optimized for each receptor however they all followed the same general format. The procedures for both filter mat and filter plate formats are based on the receptor manufacturers recommendations or those described extensively in the literature. The procedures are briefly outlined below.
In assays where filter mats are used we incubate receptor membranes, assay buffer and [^125I] labelled ligand in 96 well microplates. Add compounds to incubation mixture and continue incubation for optimized period. Presoak Filter mat GF/B in 0.5% PEI for ˜2 hr at 4° C. On completion of assay mixture incubation add additional 100 μL/well of assay buffer immediately prior to filtration. Filter the assay mixture onto the GF/B filter mat using a cell harvester. Dry the filter mats prior to sealing them into a scintillation counting bag with scintillant. Radioactivity in each well is detected by liquid scintillation counting.
In assays where filter plates are used Multiscreen glass fiber filter plates (Millipore, Cat No MAFCNOB10) are precoated with 0.5% PEI for ˜2 hr at 4° C. All wells are then washed with 200 µl/well assay buffer and filtered using the Multiscreen Separation System. Subsequently receptor membranes, assay buffer and labelled ligands are added to the wells and equilibrated. Compounds for testing are then added to the mixture and incubation is continued for an optimized time. Plates are then put into the Multiscreen Separation System and the assay mixture is filtered through the plate under vacuum. Each well is then washed several times with assay buffer. Plates are then dried prior to putting sealing tape onto the bottom of the plate. Scintillant is added to each well and radioactivity measured by liquid scintillation counting.
Raw data was analysed according to standard methods using either GraphPad Prism software or IDDBS ActivityBase software.

T1 sequence (P35346 whole entry): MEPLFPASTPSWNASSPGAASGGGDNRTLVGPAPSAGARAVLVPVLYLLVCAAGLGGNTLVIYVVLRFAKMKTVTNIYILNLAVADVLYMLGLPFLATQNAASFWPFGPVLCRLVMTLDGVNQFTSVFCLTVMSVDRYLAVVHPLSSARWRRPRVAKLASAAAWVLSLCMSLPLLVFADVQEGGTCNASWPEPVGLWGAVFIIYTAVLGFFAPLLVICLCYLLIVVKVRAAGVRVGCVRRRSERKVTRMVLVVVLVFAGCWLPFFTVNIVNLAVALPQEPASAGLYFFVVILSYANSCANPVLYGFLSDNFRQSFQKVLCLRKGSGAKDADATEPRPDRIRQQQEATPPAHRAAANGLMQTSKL

| SMILES | SST5 inhibition at 10 micromolar |
| --- | --- |
| CSC1OC(COCc2ccc(Cl)cc2)C(O)C(OCc2ccccc2)C1NC(=O)CN (stereo not drawn) [Compound 125] | + (Indicates inhibition greater than . . . 50%) |
| CSC1OC(COCc2ccc(Cl)cc2)C(O)C(OCc2ccccc2)C1NC(=O)CCN (stereo not drawn) [Compound 127] | + (Indicates inhibition greater than . . . 50%) |
| CSC1OC(COCc2ccc(-c3ccccc3)cc2)C(O)C(OCc2ccccc2)C1NC(=O)CN (stereo not drawn) [Compound 131] | + (Indicates inhibition greater than . . . 50%) |
| CSC1OC(COCc2ccccc2)C(O)C(OCc2ccc(Cl)cc2)C1NC(=O)CN (stereo not drawn) [Compound 143] | + (Indicates inhibition greater than . . . 50%) |
| CSC1OC(COCc2ccccc2)C(O)C(OCc2ccc(Cl)cc2)C1NC(=O)CCCN (stereo not drawn) [Compound 147] | + (Indicates inhibition greater than . . . 50%) |
| CSC1OC(COCc2ccc(Cl)cc2)C(O)C(OCc2ccc(Cl)cc2)C1NC(=O)CN (stereo not drawn) [Compound 149] | + (Indicates inhibition greater than . . . 50%) |
| CSC1OC(COCc2ccc(Cl)cc2)C(O)C(OCc2ccc(Cl)cc2)C1NC(=O)CCCN (stereo not drawn) [Compound 153] | + (Indicates inhibition greater than . . . 50%) |
| CSC1OC(COCc2ccc(-c3ccccc3)cc2)C(O)C(OCc2ccc(-c3ccccc3)cc2)C1NC(=O)CCCNC(=N)N (stereo not drawn) [Compound 184] | + (Indicates inhibition greater than . . . 50%) |
| CSC1OC(COCc2ccccc2)C(O)C(OCc2ccc3ccccc3c2)C1NC(=O)CCN (stereo not drawn) [Compound 193] | + (Indicates inhibition greater than . . . 50%) |

same assay, conditions: 10 micromolar; Example Library 4

| SMILES | SSTS inhibition at 10 micromolar |
| --- | --- |
| COCC1OC(OCc2ccccc2)C(NC(=O)CN)C(OCc2ccccc2)C1O (stereo not drawn) [Compound 213] | + (Indicates inhibition greater than . . . 50%) |
| COCC1OC(OCc2ccccc2)C(NC(=O)CCN)C(OCc2ccccc2)C1O (stereo not drawn) [Compound 215] | + (Indicates inhibition greater than . . . 50%) |
| COCC1OC(OCc2ccccc2)C(NC(=O)CCCN)C(OCc2ccccc2)C1O (stereo not drawn) [Compound 217] | + (Indicates inhibition greater than . . . 50%) |
| COCC1OC(OCc2ccccc2)C(NC(=O)CN)C(OCc2ccc3ccccc3c2)C1O (stereo not drawn) [Compound 231] | + (Indicates inhibition greater than . . . 50%) |
| COCC1OC(OCc2ccc(Cl)cc2)C(NC(=O)CCN)C(OCc2ccccc2)C1O (stereo not drawn) [Compound 238] | + (Indicates inhibition greater than . . . 50%) |
| COCC1OC(OCc2ccc(Cl)cc2)C(NC(=O)CCCN)C(OCc2ccccc2)C1O (stereo not drawn) [Compound 240] | + (Indicates inhibition greater than . . . 50%) |
| COCC1OC(OCCc2ccccc2)C(NC(=O)CN)C(OCc2ccccc2)C1O (stereo not drawn) [Compound 260] | + (Indicates inhibition greater than . . . 50%) |
| COCC1OC(OCCc2ccccc2)C(NC(=O)CCN)C(OCc2ccccc2)C1O (stereo not drawn) [Compound 262] | + (Indicates inhibition greater than . . . 50%) |
| COCC1OC(OCCc2ccccc2)C(NC(=O)CCCN)C(OCc2ccccc2)C1O (stereo not drawn) [Compound 264] | + (Indicates inhibition greater than . . . 50%) |
| COCC1OC(OCCc2ccccc2)C(NC(=O)CN)C(OCc2ccc(Cl)cc2)C1O (stereo not drawn) [Compound 266] | + (Indicates inhibition greater than . . . 50%) |
| COCC1OC(OCc2ccc3ccccc3c2)C(NC(=O)CN)C(OCc2ccccc2)C1O (stereo not drawn) [Compound 284] | + (Indicates inhibition greater than . . . 50%) |
| COCC1OC(OCc2ccc3ccccc3c2)C(NC(=O)CCCN)C(OCc2ccccc2)C1O (stereo not drawn) [Compound 288] | + (Indicates inhibition greater than . . . 50%) |
